# From patent US9801943B2, “Method for in vivo targeting of nanoparticles via bioorthogonal copper-free click chemistry” (KOREA INSTITUTE OF SCIENCE AND TECHNOLOGY, priority 2012, dated 2017)
# How the values were obtained:
# A549 cells = assay: Generation of azide groups on A549 cells (Coomassie staining, western blot with phosphine-FLAG); assay type: cell-based, human; settings: Ac4ManNAz 0.5, 5, 50 μM, 3 days
# Description: A549 cells in 10 mL of media with no sugar or different concentrations of Ac4ManNAz (final concentrations of 0.5 μM, 5 μM and 50 μM) were seeded onto 100×20 mm polystyrene tissue culture plates at a density of 1.5×10^6 cells per plate and incubated for 3 days. The cells were washed twice with PBS (pH 7.4) and harvested from the plates with a cell scraper. The cells were pelletized by centrifuging at 3,000×g for 5 minutes and the supernatant was discarded. The cell pellets were resuspended in 500 μL of lysis buffer (1% SDS, 100 mM Tris.HCl, pH 7.4) containing protease inhibitor (Complete, EDTA-free) and lysed at 4° C. using a probe-type sonicator. The sonicated lysates were incubated at 4° C. for 30 minutes to further solubilize proteins. Insoluble debris was removed by centrifuging at 3,000×g for 10 minutes. Total soluble protein concentration was determined by the bicinchroninic acid (BCA) protein assay (Pierce, Ill., USA) to be 5 mg/mL. 20 μL of the lysate (5 mg/mL protein) was incubated with 2 μL of phosphine-FLAG (5 mM in PBS, pH 7.4) (Sigma, St. Louis, Mo., USA) at 37° C. for 6 hours. SDS-PAGE loading buffer was added to each sample. Then, aliquots were loaded onto 10% SDS-PAGE after heating at 95° C. […]
# A549 tumors [1] = assay: Generation of azide groups in tumor tissues (western blot, immunohistochemical staining); assay type: in vivo, mice; settings: Ac4ManNAz 0.5, 5, 50 mM intratumoral once daily for 3 days; tumors dissected on day 4
# Description: Preparation of tumor-bearing mouse models and administration of Ac4ManNAz were performed according to the same method as described above. 24 hours after the injection of Ac4ManNAz (on day 4), the tumors were dissected, transferred into 1 mL of lysis buffer (1% SDS, 100 mM Tris.HCl, pH 7.4) containing protease inhibitor (Complete, EDTA-free), and homogenized using a homogenizer (WiseMix HG-15D, Daihan Scientific, Seoul, Korea). The lysate was incubated at 4° C. for 30 minutes and insoluble debris was removed by centrifuging at 3,000×g for 10 minutes. Protein concentration was measured using the BCA protein assay kit. Staudinger reaction with phosphine-FLAG, SDS-PAGE and western blot analysis were conducted as described above.
# The dissected tumor tissues were retrieved and fixed in a 4% (v/v) buffered formalin solution, dehydrated with graded ethanol series, and embedded in paraffin. The paraffin tissues were sliced into 4-μm wide slices and immunohistochemical staining was performed using Histostain®-Plus Brod Spectrum (Invitrogen, CA, USA) in combination with phosphine-FLAG and monoclonal anti-FLAG-HRP antibodies according to the manufacturer's instructions. The paraffin slices were dehydrated, mounted using the Permount SP15-100 Toluene Solution (Fisher Scientific, NJ, USA) mounting medium, and observed with an optical microscope (BX51, Olympus, Tokyo, Japan). […]
# A549 tumors [2] = assay: In vivo and ex vivo NIRF imaging of tumor targeting in A549 tumor-bearing mice; settings: i.v., same fluorescence intensity as DBCO-lipo
# Description: All experiments using live animals were performed in compliance with the relevant laws and the institutional guidelines of the Korea Institute of Science and Technology (KIST) and under the approval by the institutional committee. For in vivo and ex vivo experiments, 1.0×10^7 A549 tumor cells were administered to 5-week-old male athymic nude mice (20 g, Institute of Medical Science, Tokyo, Japan) on both flanks by subcutaneous injection. […] DBCO-lipo (10 mg/kg), DBCO-free control liposome (10 mg/kg) or DBCO-fluorescent dye conjugate of the same fluorescence intensity as DBCO-lipo were injected into the tail veins of two A549 tumor-bearing mice. […] Near-infrared (NIR) fluorescence emission at 700 nm was collected and detected with a fast photomultiplier tube (Hamamatsu, Japan) and a time-correlated single photon counting system (Becker and Hickl GmbH, Berlin, Germany). The active tumor targeting characteristics of DBCO-lipo were evaluated by capturing 20 z-section images at 1.0 mm spacing using the Analysis Workstation software (ART Advanced Research Technologies Inc., Montreal, Canada). […] NIR fluorescence images were obtained using a 12-bit CCD (Kodak Image Station 4000 MM, New Haven, Conn., USA) equipped with a Cy5.5 emission filter (600-700 nm; Omega Optical). […] All numerical values were expressed as mean±standard deviation for the three animal groups. […]
Compound,generation of azide groups on cell surface (A549 cells),amount of azide groups in tumor tissues (A549 tumors [1]),NIRF image brightness in mice (A549 tumors [2])
"CC(=O)OC[C@H]1OC(OC(C)=O)[C@@H](NC(=O)CN=[N+]=[N-])[C@@H](OC(C)=O)[C@@H]1OC(C)=O (stereo partly drawn) [Ac4ManNAz, Tetraacetylated N-azidoacetyl-D-mannosamine]",modified azide groups could be generated on the surface of the A549 cells,increased in a dose-dependent manner,
dibenzylcyclooctyne-SETA650 [DBCO-SETA],,,relatively dim images
